ChEMBL document CHEMBL1201862, “PubChem BioAssay data set” (2004)
Active and inactive are the calls of the source.

How the values were obtained:
[1] = molecular target: T1, Microphthalmia-associated transcription factor (Homo sapiens, UniProt O75030); experiment: reducers of TRPM1 reporter luminescence, concentration series – cell-based, SK-MEL-5, cherry-picked, set 3, MITF inhibitor project, dose response (AID 493073); assay type: functional;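 also: SK-MEL-5 melanoma cells with luciferase driven by the MITF target TRPM1 promoter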
T1 sequence (O75030 whole entry): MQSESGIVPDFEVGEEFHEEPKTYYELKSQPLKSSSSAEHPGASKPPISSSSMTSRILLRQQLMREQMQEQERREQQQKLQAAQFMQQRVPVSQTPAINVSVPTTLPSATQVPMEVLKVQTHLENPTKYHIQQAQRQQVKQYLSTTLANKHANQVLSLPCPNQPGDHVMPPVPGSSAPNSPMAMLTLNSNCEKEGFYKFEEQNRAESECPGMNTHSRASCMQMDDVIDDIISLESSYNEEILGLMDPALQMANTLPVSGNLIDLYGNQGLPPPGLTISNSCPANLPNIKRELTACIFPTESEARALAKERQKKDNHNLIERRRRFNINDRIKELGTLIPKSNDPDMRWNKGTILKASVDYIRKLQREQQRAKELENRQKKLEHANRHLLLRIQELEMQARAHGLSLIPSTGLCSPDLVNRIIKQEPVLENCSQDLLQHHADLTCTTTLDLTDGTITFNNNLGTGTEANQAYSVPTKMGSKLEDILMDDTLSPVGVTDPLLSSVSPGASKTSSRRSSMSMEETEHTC

[2] = HEK-293T viability loss after treatment – luminescence, T-cell screen hits, cytotoxicity control for TCR NF-kB inhibitor project, dose response (AID 489026); assay type: functional, cell-based;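 also: cells exposed to compound about 14 hours before the viability readout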
Paired box protein Pax-8 = Paired box protein Pax-8 (Homo sapiens, UniProt Q06710); experiment: PAX8 transcriptional activity inhibition in RMG-I – RMG-I cells, luciferase, cherry-pick, dose response (AID 687027); assay type: functional, cell-based;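 also: luciferase reporter driven by Pax8 target thyroperoxidase promoter measured by SteadyGlo luminescence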
Paired box protein Pax-8, sequence (Q06710 whole entry): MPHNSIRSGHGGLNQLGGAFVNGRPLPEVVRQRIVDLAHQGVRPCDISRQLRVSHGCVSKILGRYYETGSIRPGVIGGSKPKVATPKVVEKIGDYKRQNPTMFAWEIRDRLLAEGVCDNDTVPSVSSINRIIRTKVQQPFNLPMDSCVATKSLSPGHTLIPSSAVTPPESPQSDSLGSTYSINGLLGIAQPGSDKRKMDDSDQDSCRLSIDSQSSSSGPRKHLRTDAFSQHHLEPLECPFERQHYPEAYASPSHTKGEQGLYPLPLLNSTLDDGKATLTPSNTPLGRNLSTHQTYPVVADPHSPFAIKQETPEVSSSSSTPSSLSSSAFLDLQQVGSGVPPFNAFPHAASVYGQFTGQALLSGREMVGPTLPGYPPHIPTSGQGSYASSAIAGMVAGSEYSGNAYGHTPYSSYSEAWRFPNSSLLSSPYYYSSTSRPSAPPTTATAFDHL

[3] = molecular target: T2, Nuclear receptor subfamily 0 group B member 1 (Homo sapiens, UniProt P51843); assay type: functional, cell-based;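 also: HEK293T cells transfected with SF-1 and DAX-1 plus StAR promoter luciferase reporter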
T2 sequence (P51843 whole entry): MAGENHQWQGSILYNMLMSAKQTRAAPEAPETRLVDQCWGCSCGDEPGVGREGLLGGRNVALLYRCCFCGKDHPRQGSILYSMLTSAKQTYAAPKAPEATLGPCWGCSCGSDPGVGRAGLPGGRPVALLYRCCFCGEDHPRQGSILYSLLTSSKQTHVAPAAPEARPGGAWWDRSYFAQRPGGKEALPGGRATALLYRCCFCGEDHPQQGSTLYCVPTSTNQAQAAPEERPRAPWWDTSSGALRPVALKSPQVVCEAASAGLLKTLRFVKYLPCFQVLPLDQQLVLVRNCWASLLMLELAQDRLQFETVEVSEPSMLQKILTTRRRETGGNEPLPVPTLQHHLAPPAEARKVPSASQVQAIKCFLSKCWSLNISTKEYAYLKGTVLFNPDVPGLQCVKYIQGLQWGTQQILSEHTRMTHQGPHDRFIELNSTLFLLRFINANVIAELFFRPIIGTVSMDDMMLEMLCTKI

cells [4] = assay type: functional, cell-based
[5] = molecular target: SWI/SNF-related matrix-associated actin-dependent regulator of chromatin subfamily A member 2 (Homo sapiens, UniProt P51531); experiment: Luminescence-based cell-based high throughput dose response assay to identify activators of the function of SWI/SNF related, matrix associated, actin dependent regulator of chromatin, subfamily a, member 2 (SMARCA2, BRM).; assay type: functional
SWI/SNF-related matrix-associated actin-dependent regulator of chromatin subfamily A member 2, sequence (P51531 whole entry): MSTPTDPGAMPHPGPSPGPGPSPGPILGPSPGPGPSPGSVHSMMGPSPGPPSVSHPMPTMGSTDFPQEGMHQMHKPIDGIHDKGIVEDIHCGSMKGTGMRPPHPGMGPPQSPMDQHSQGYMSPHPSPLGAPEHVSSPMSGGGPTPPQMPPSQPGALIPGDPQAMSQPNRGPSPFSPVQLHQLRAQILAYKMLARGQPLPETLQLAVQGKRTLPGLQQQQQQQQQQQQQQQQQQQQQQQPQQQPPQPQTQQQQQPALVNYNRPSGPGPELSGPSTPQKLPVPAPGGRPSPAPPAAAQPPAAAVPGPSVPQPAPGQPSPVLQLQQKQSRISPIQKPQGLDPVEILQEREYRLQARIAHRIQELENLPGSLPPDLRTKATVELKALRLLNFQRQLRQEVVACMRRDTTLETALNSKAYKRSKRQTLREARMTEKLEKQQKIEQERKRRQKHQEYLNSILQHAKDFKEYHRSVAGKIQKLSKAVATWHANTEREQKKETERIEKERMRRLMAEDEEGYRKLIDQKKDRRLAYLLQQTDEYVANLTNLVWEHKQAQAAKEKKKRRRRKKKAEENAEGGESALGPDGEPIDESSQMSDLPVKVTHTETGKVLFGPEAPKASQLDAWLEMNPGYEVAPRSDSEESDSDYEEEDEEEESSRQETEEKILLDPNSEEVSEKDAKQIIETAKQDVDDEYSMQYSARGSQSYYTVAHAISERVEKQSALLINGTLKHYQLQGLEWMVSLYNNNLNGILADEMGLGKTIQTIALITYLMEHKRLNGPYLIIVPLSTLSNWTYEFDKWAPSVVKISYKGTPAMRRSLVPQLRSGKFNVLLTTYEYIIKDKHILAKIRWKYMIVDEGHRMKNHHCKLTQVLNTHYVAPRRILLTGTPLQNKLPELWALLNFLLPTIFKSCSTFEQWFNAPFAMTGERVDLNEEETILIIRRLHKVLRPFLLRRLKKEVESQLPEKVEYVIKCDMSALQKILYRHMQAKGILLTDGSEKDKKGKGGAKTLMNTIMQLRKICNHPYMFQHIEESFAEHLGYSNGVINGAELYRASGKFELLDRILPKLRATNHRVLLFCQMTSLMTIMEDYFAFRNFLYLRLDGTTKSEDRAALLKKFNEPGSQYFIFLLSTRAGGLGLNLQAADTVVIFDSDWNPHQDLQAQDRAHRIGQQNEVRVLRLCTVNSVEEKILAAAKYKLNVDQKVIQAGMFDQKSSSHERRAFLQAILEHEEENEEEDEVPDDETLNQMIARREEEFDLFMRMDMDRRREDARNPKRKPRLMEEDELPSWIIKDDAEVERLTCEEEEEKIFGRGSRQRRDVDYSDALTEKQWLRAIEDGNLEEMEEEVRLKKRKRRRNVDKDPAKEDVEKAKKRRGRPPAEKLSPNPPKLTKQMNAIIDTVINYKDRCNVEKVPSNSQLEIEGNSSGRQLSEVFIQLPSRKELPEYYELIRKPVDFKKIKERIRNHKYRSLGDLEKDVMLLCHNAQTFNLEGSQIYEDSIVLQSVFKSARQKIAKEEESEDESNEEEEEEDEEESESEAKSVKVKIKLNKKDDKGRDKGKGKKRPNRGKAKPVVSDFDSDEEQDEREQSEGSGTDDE

[6] = Counterscreen for activators of the function of SWI/SNF related, matrix associated, actin dependent regulator of chromatin, subfamily a, member 2 (SMARCA2, BRM): Luminescence-based cell-based high throughput dose response assay to identify non-selective compounds using the VP16 reporter assay.; assay type: functional
[7] = cAMP pathway inhibition in counterscreen cell line – TR-FRET cAMP detection, counter-screen for MC4R biased antagonist project, dose response (AID 602305); assay type: functional, cell-based;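 also: U2OS cells stimulated with forskolin near its EC80 as the cAMP inducer; potency is for inhibition of forskolin-stimulated cAMP signaling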
[8] = viability of HCT116 lacking mutant beta-catenin – cell-based, human colon tumor, dose response (AID 1045); assay type: functional;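 also: HCT116 colon tumor cells with beta catenin knocked out; cells exposed to compound for 60 hours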
HEK293 [9] = experiment: cells; details: Homo sapiens
[10] = molecular target: T3, Heat shock factor protein 1 (Mus musculus, UniProt P38532); experiment: enhancement of HSF1-driven luciferase signal – cell-based, NIH3T3, luminescence, dose retest, confirmation (AID 435004); assay type: functional;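 also: stress induced by proteasome inhibitor MG132 added 30 min after compound; luciferase reporter driven by HSF1 response element in NIH3T3 cells; actives raise luminescence as potentiators of the MG132 stress response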
T3 sequence (P38532 whole entry): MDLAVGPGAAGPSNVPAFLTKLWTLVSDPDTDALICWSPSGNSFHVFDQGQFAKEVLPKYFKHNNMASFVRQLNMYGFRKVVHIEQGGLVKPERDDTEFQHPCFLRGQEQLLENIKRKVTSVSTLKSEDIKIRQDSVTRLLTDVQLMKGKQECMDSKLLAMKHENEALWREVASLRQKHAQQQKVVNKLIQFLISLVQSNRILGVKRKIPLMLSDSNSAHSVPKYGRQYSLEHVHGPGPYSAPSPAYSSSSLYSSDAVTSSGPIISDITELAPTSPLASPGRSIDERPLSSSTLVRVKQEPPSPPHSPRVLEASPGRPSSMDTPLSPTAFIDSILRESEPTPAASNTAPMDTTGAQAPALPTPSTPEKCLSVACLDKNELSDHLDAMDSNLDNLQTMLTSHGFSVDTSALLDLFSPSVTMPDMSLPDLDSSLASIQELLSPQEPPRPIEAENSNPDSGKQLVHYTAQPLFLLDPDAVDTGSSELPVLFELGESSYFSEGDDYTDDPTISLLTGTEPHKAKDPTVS

HEK293 [11] = experiment: cells; details: Homo sapiens; remark: listed apart in the source
Melanocortin receptor 4 = Melanocortin receptor 4 (Homo sapiens, UniProt P32245); experiment: inhibitors of MC4R cAMP signaling – cell-based, TR-FRET, biased antagonists, dose response (AID 602298); assay type: functional;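 also: antagonist potency against agonist-stimulated cAMP production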
Melanocortin receptor 4, sequence (P32245 whole entry): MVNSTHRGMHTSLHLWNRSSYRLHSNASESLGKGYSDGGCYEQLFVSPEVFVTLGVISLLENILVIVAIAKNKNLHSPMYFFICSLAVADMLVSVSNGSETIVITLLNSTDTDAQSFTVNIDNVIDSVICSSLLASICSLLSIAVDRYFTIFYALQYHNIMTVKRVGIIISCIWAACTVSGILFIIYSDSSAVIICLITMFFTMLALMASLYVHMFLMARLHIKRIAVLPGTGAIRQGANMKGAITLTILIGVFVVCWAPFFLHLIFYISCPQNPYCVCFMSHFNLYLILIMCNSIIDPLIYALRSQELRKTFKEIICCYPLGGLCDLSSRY

[12] = viability of PTEN-deleted HCT116 cells – cell-based, HCT116 PTEN knockout, dose response (AID 1047); assay type: functional;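 also: HCT116 colon tumor cells with PTEN knocked out; cells exposed to compound for 60 hours before readout; potency for loss of cell viability measured by luminescence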
[13] = Vero E6 cell cytotoxicity, dose response, cytotoxicity control for non-replicating M. tuberculosis project, secondary assay (AID 492998); assay type: functional, VeroE6; details: Vero C1008
cells [14] = assay type: functional
[15] = THP-1 cell cytotoxicity, dose response, cytotoxicity control for non-replicating M. tuberculosis project (AID 489025); assay type: functional
[16] = molecular target: T4, DNA repair and recombination protein RAD54-like (Homo sapiens, UniProt Q92698); experiment: RAD54 Holliday junction migration blockers – biochemical, fluorescence, cherry-picked samples, dose series, confirmation (AID 651657); assay type: functional
T4 sequence (Q92698 whole entry): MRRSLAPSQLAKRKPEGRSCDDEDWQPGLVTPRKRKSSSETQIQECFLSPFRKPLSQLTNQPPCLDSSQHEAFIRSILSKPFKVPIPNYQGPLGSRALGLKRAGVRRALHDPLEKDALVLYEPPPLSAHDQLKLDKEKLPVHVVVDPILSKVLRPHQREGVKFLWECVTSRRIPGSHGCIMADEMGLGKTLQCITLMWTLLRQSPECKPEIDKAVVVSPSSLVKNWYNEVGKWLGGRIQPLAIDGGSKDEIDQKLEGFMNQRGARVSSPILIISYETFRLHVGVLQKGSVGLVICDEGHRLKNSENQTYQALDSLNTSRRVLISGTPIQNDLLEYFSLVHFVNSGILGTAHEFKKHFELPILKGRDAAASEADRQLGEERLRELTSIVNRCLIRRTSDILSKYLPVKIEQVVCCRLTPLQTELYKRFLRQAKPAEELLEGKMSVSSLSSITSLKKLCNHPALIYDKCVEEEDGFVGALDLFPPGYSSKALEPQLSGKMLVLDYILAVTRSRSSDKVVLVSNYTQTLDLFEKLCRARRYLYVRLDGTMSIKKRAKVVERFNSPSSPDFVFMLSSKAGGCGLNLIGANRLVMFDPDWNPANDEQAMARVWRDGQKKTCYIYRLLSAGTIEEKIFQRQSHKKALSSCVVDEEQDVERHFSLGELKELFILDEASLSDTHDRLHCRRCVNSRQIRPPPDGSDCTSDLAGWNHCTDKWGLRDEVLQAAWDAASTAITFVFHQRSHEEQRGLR

[17] = molecular target: DNA (cytosine-5)-methyltransferase 1 (Homo sapiens, UniProt P26358); experiment: inhibition of DNA methylation by DNMT1 – biochemical, fluorescent molecular beacon, confirmation (AID 602386); assay type: functional
DNA (cytosine-5)-methyltransferase 1, sequence (P26358 whole entry): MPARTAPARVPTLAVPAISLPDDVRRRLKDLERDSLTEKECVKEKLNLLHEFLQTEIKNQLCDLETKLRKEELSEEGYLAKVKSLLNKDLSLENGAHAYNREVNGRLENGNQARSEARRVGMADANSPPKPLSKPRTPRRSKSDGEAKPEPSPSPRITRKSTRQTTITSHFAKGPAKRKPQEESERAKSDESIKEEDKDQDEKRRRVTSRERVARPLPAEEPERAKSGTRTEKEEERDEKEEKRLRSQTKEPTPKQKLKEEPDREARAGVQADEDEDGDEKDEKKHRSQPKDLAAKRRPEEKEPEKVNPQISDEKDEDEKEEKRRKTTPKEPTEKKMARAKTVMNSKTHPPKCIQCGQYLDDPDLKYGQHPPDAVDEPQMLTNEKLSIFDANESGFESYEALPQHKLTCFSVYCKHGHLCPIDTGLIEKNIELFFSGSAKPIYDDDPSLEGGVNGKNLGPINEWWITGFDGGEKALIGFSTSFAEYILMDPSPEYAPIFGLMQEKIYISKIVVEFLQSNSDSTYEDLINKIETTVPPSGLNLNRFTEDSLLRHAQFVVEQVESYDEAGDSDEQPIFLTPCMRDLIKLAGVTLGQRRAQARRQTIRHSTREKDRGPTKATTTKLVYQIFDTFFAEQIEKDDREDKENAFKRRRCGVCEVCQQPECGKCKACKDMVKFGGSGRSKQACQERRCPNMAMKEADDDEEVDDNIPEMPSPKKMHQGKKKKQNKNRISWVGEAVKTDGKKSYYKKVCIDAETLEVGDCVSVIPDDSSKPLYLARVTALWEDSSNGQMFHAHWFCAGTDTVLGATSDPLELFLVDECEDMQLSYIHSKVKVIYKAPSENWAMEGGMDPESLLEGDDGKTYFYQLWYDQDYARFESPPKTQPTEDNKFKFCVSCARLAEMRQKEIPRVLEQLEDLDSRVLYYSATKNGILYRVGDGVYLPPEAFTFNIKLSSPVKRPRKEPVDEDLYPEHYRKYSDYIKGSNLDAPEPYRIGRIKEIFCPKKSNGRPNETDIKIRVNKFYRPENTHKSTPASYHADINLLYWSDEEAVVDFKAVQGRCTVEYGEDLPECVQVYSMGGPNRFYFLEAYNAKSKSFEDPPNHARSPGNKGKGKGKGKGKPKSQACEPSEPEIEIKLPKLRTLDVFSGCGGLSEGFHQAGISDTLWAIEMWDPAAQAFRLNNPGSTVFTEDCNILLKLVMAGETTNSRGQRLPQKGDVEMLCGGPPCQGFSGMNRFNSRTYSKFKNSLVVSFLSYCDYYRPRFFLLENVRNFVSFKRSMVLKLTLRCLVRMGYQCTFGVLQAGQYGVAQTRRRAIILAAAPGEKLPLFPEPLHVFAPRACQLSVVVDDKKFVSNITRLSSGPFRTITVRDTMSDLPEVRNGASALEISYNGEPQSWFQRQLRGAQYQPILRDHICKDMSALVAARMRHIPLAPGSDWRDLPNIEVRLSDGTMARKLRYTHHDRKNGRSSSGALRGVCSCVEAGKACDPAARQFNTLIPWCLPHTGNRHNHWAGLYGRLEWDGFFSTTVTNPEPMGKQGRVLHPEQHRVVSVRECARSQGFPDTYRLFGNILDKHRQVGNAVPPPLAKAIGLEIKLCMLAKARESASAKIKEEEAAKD

[18] = microbe, parasite or virus in culture; assay type: functional; details: Mycobacterium tuberculosis
[19] = alpha-synuclein stem-loop luciferase translation blockers – H4 neuroglioma cells, luminescence, confirmation (AID 1988); assay type: functional, cell-based
[20] = Luminescence Cell-Based Dose Response HTS to Identify Inhibitors of 5'UTR Stem-Loop Driven Prion Protein mRNA Translation in H4 Neuroglioblastoma Cells. [Related pubchem assays: 1827 (Project Summary), 1813 (Primary HTS)]; assay type: functional
[21] = molecular target: T5, Aryl hydrocarbon receptor (Homo sapiens, UniProt P35869); details: Potency;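 also: confirmatory quantitative high-throughput screen measuring activation of the AhR signaling pathway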
T5 sequence (P35869 whole entry): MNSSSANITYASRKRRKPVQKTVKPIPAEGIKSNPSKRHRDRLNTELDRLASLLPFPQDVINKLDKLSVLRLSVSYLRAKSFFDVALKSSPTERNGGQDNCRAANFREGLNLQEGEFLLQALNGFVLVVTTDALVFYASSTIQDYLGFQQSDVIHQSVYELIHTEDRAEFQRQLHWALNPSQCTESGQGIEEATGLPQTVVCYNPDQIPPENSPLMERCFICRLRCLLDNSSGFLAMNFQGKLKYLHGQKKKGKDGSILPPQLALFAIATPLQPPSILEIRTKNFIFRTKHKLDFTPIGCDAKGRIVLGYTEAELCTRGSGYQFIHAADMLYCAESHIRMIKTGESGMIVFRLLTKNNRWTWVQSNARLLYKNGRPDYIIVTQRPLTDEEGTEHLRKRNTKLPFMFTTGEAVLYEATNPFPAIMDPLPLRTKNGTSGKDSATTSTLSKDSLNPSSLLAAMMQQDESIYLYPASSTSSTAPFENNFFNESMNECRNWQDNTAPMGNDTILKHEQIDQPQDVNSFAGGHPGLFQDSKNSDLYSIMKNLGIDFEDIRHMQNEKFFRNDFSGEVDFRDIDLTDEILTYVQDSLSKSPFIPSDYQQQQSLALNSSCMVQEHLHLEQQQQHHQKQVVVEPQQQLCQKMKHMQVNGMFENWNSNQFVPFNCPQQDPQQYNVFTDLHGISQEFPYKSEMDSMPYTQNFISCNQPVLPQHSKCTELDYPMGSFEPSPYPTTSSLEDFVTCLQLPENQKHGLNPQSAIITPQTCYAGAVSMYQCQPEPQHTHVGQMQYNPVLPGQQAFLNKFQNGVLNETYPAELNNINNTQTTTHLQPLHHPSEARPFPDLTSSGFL

With `COc1ccc(COC(=O)c2cc([N+](=O)[O-])ccc2N2CCOCC2)cc1F` the AC50 [1] was 23 nM (active), the IC50 [2] was > 80 µM (inactive) and the AC50 (Paired box protein Pax-8) was < 260 nM (active). For the same molecule, the IC50 [3] was > 278 nM (active) and the IC50 (cells [4]) was > 67.5 µM (inactive).
For `COCc1cc(O)n2nc(-c3ccc(C)cc3)cc2n1`, the EC50 [5] was > 91.2 µM (inactive) and the EC50 [6] was > 91.2 µM (inactive).
In the case of `CCOC(=O)c1ccc(/N=c2\sc(C(=O)OC)cc(=O)n2Cc2ccco2)cc1`, the IC50 [7] is reported as > 64.5 µM (inactive), the EC50 [8] is reported as 5.88 µM (active) and the EC50 (HEK293 [9]) is reported as > 59.6 µM (inactive). For the same molecule, the EC50 [10] was 16.8 µM (active), the EC50 (HEK293 [11]) was > 59.6 µM (inactive) and the IC50 (Melanocortin receptor 4) was > 7.17 µM (active). For the same molecule, the EC50 [12] was 7.5 µM (active).
In the case of `CN(C)CCOc1nc(-c2ccccc2)nc2c1oc1ccccc12`, the CC50 [13] is reported as > 20 µM (active), the IC50 (cells [14]) is reported as 10.7 µM (active) and the EC50 [5] is reported as > 10.1 µM (inactive). The CC50 [15] was 34 µM (active), the AC50 [16] was 4.97 µM (active) and the EC50 [6] was > 91.2 µM (inactive). The IC50 [17] was > 99 µM (inactive) and the CC50 [18] was 12.5 µM (active).
With `O=C(/C=C\Nc1cccc(F)c1)c1ccc2c(c1)OCO2` the EC50 [19] was 7.2 µM (active), the EC50 [20] was 7.42 µM (active) and the IC50 [3] was > 92.6 nM (active). For the same molecule, the IC50 (cells [4]) was > 67.5 µM (inactive).
In the case of `N#Cc1ccccc1` [BENZONITRILE], the AC50 [21] is reported as 7.08 µM (inconclusive).
